Where two headings read alike, the source gives them in different places.
Key:
Human JNK 3 = target: T1, Human JNK 3 (Homo sapiens, UniProt P53779); test: Measurement of JNK 3 inhibition (GST-JNK3, GST-c-Jun substrate, [γ-33P]ATP, SPA beads); format: biochemical
T1 construct: made in house; host or cells: Escherichia coli
Method: Measurement of JNK 3 Inhibition
Human JNK 3 was expressed as a fusion protein (GST-JNK 3) with glutathione S-transferase (GST) in Escherichia coli and was purified using glutathione Sepharose 4B beads. The amino acid sequence 1-169 of c-Jun was prepared as a fusion protein (GST-c-Jun) with GST in Escherichia coli, was purified using glutathione Sepharose 4B beads and was used as a substrate. A test compound was solved in 100% dimethyl sulfoxide into 10 mM and was then further diluted with 10% aqueous dimethyl sulfoxide solution to yield a dilution series. In 96-well OPTI plate (available from ParkinElmer Life Sciences), 20 μl of diluted compound, 30 μl of substrate solution (1.2 μg GST-c-Jun, 0.2 μCi [γ-^33P]ATP, 25 mM HEPES pH=7.5, 10 mM MgAcetate, 3.33 μM ATP) and 50 μl of enzyme solution (0.04 μg GST-JNK3, 25 mM HEPES pH=7.5, 10 mM Mg Acetate) were mixed per 1-well, made up to 100 μl, and allowed to react for 30 minutes. After terminating the reaction by adding 100 μl of a reaction terminator (80 mM ATP, 50 mg/ml glutathione SPA beads (available from Amersham Pharmacia Biotech)), the reaction mixture was shaken for 30 minutes. The mixture was centrifuged at room temperature at 1000×g for 5 minutes, and the emission intensity thereof was determined on a TopCount™ illuminator (available from available from PerkinElmer Life Sciences). The activity is expressed by the 50% inhibitory concentration on the enzymatic activity of JNK, i.e., IC50 (nM).

ERK2 = target: T2, ERK2 (Homo sapiens, UniProt P28482); test: Measurement of ERK2 inhibition (ELISA, myelin basic protein substrate); format: biochemical; settings: concentration at which ERK2 enzyme activity was inhibited to 50%; room temperature, 30 minutes; read-out: ERK2 inhibitory activity
T2 construct: purchased Upstate Biotech
Method: Measurement of ERK2 Inhibition
A plate for ELISA was coated for 1 hour with 1 μg/well myelin basic protein (available from Upstate Biotech) serving as a reaction substrate. Following washing operation with PBS-Tween, blocking with 1% BSA-PBS was conducted for 3 hours. After washing with PBS-Tween, 25 μl of a reaction solution (20 mM MOPS, 25 mM β-glycerphosphoric acid, 5 mM EGTA, 1 mM orthovanadic acid, 1 mM dithiothreitol), 5 μl of a dilution sample of compound from dilution series which was prepared using 1% DMSO-1% BSA solution, 10 μl of 0.5 μg/ml ERK2 (available from Upstate Bioech), 10 μl of 500 μM ATP were added to made up to 50 μl, and allowed to react at room temperature for 30 minutes. 100 μl of 200 mM EDTA (pH 8.0) was added to stop the reaction, which was then washed with PBS-Tween. This was then added with mouse anti-phospho-myelin basic protein antibody (available from Usptate Biotech), allowed to react for 1 hour, and washed with PBS-Tween, thereafter added with anti-mouse IgG antibody combined with horseradish peroxidase (available from ICN), allowed to react for 1 hour, and washed with PBS-Tween. Subsequently 100 μl of a TMB peroxidase substrate solution (available from KPL) was added, coloring reaction was allowed for 10 minutes, and then measurement at OD 450 nm was conducted. […]

[1] = 50% inhibitory concentration on the enzymatic activity of JNK, 3.33 μM ATP in substrate solution, 30 minutes
[2] = selectivity table, compared with ERK2, read-out: JNK3 inhibitory activity

T1 sequence (P53779 whole entry): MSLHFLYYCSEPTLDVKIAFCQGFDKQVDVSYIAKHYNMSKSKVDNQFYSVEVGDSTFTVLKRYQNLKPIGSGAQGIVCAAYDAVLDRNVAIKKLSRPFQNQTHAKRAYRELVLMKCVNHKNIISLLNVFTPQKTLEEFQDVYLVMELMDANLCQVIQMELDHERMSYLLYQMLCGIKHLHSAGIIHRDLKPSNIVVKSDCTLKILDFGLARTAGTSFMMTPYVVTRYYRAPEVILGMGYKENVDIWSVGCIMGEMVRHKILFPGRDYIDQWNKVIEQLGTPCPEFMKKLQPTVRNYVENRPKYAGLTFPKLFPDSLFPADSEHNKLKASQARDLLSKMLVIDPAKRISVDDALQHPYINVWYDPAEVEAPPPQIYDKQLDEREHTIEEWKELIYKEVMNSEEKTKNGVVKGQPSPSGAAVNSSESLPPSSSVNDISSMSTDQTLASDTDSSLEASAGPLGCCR
T2 sequence (P28482 whole entry, species assumed): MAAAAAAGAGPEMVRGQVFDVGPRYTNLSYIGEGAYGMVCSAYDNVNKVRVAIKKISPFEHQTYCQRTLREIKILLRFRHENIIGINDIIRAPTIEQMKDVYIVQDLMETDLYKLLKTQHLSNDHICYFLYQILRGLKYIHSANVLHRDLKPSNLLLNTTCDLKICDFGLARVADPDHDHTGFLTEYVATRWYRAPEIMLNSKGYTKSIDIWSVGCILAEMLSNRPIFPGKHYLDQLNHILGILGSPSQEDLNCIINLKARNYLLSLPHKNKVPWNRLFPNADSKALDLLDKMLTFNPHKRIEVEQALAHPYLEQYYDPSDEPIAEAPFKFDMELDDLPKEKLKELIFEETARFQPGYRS

Row | Compound | IC50 (Human JNK 3; [1]) | IC50 (ERK2) | IC50 (Human JNK 3; [2])
1 | O=C(NC1CC1)c1ccc2[nH]nc(-c3cccc(F)c3)c2n1 [Example 56, 3-(3-Fluorophenyl)-1H-pyrazolo[4,3-b]pyridine-5-carboxylic Acid Cyclopropylamide] | 234 nM | – | –
2 | O=C(NCc1ccco1)c1cc2c(/C=C/c3cccc(F)c3)n[nH]c2cc1F [Example 103, 6-Fluoro-3-[(E)-2-(3-fluorophenyl)-vinyl]-1H-indazole-5-carboxylic Acid (furan-2-ylmethyl)-amide] | – | 22100 nM | 55 nM
3 | O=C(NCc1cccnc1)c1cc2c(/C=C/c3cccc(F)c3)n[nH]c2cc1F [Example 106, 6-Fluoro-3-[(E)-2-(3-fluorophenyl)-vinyl]-1H-indazole-5-carboxylic Acid (pyridine-3-ylmethyl)-amide] | 195 nM | – | –
4 | CC(C)[C@@H](CO)NC(=O)c1cc(F)c2[nH]nc(/C=C/c3cccnc3)c2c1 [Example 128, 7-Fluoro-3-[(E)-2-(pyridin-3-yl)-vinyl]-1H-indazole-5-carboxylic acid [(1S)-1-hydroxymethyl-2-methylpropyl]-amide] | 117 nM | – | –
5 | O=C(Nc1cc(F)c2[nH]nc(/C=C/c3cccnc3)c2c1)c1ccco1 [Example 136, Furan-2-carboxylic Acid [7-fluoro-3-(2-pyridin-3-yl-vinyl)-1H-indazol-5-yl]-amide] | 167 nM | – | –
6 | O=C(NCc1ccco1)c1ccc2[nH]nc(/C=C/c3cccs3)c2c1F [Example 213, 4-Fluoro-3-[(E)-2-(thiophen-2-yl)-vinyl]-1H-indazole-5-carboxylic Acid (furan-2-ylmethyl)-amide] | 117 nM | – | –
7 | O=C(NC1CC1)c1ccc2[nH]nc(/C=C/c3ccc(F)cc3)c2c1OCCO [Example 353, 3-[(E)-2-(4-Fluorophenyl)-vinyl]-4-(2-hydroxyethoxy)-1H-indazole-5-carboxylic Acid Cyclopropylamide] | 148 nM | – | –
8 | COc1c(-c2nc(C)n[nH]2)ccc2[nH]nc(/C=C/c3cccc(F)c3)c12 [Example 392, 3-[(E)-2-(3-Fluorophenyl)-vinyl]-4-methoxy-5-(5-methyl-2H-[1,2,4]triazol-3-yl)-1H-indazole] | 403 nM | – | –
9 | O=C(NCc1ccco1)c1cc2c(/C=C/c3cccc(F)c3)n[nH]c2cn1 [Example 466] | 578 nM | – | –
10 | O=C(NCc1ccco1)c1cnc2[nH]nc(-c3ccc4ccccc4c3)c2c1 [Example 472, 3-(Naphthalen-2-yl)-1H-pyrazolo[3,4-b]pyridine-5-carboxylic Acid (furan-2-ylmethyl)-amide] | 505 nM | – | –
11 | O=C(Nc1ccc2[nH]nc(/C=C/c3ccc(F)cc3)c2n1)c1ccco1 [Example 495, Furan-2-carboxylic Acid {3-[(E)-2-(4-fluorophenyl)-vinyl]-1H-pyrazolo[4,3-b]pyridin-5-yl}-amide] | 118 nM | – | –
12 | O=C(NC(CO)c1ccccc1)c1cc2c(-c3ccc4ccccc4c3)n[nH]c2s1 (centres unmarked) [Example 522, 3-(Naphthalen-2-yl)-1H-thieno[2,3-c]pyrazol-5-carboxylic Acid (2-hydroxy-1-phenylethyl)amide] | 146 nM | – | –
13 | CNCc1nnc(-c2cc3c(/C=C/c4ccc(F)cc4)n[nH]c3cc2F)[nH]1 [Example 571, (5-{6-Fluoro-3-[(E)-2-(4-fluorophenyl)-vinyl]-1H-indazol-5-yl}-4H-[1,2,4]triazol-3-ylmethyl)-methyl-amine] | 63 nM | – | –
14 | NCc1nnc(-c2cc(F)c3[nH]nc(/C=C/c4ccc(F)cc4)c3c2)[nH]1 [Example 573, C-(5-{7-Fluoro-3-[(E)-2-(4-fluorophenyl)-vinyl]-1H-indazol-5-yl}-4H-[1,2,4]triazol-3-yl)-methylamine] | 66 nM | – | –
15 | Fc1ccc(/C=C/c2n[nH]c3c(F)cc(-c4ncc[nH]4)cc23)cc1 [Example 603, 7-Fluoro-3-[(E)-2-(4-fluorophenyl)-vinyl]-5-(1H-imidazol-2-yl)-1H-indazole] | 117 nM | – | –
16 | C[C@H](NC(=O)c1ccc2[nH]nc(/C=C/c3ccc(F)cc3)c2c1OCCCO)C(N)=O [Example 786, 3-[(E)-2-(4-Fluorophenyl)-vinyl]-4-(3-hydroxypropoxy)-1H-indazole-5-carboxylic Acid [(1S)-1-carbamoyl-ethyl]-amide] | 175 nM | – | –
17 | NC(=O)CCOc1c(C(=O)N[C@H](CO)c2ccccc2)ccc2[nH]nc(/C=C/c3ccc(F)cc3)c12 [Example 790, 4-(2-Carbamoylethoxy)-3-[(E)-2-(4-fluorophenyl)-vinyl]-1H-indazole-5-carboxylic Acid [(1S)-2-hydroxy-1-phenyl-ethyl]-amide] | 70 nM | – | –
18 | COc1c(C(=O)NCc2ncco2)ccc2[nH]nc(/C=C/c3ccc(F)cc3F)c12 [Example 992, 3-[(E)-2-(2,4-Difluorophenyl)-vinyl]-4-methoxy-1H-indazole-5-carboxylic Acid (oxazol-2-ylmethyl)amide] | 107 nM | – | –
19 | COc1cc(/C=C/c2n[nH]c3cc(F)c(NC(=O)CC4CC4)cc23)ccc1F [Example 1003, 2-Cyclopropyl-N-{6-fluoro-3-[(E)-2-(4-fluoro-3-methoxyphenyl)-vinyl]-1H-indazol-5-yl}acetamide] | 122 nM | – | –
20 | CCCNC(=O)Nc1cc2c(/C=C/c3ccc(F)cc3)n[nH]c2cc1F [Example 1056, 1-{6-Fluoro-3-[(E)-2-(4-fluorophenyl)-vinyl]-1H-indazol-5-yl}-3-propyl-urea] | 132 nM | – | –
21 | O=C(NCc1ccco1)c1ccc2[nH]nc(/C=C/c3cccc(F)c3)c2c1 [Reference example 1, 3-[(E)-2-(3-fluorophenyl)-vinyl]-1H-indazole-5-carboxylic acid (furan-2-ylmethyl)-amide, reference compound] | – | 710 nM | 92 nM
